Results on 13 molecules are retold here after PubChem BioAssay AID248 (DTP/NCI, 2004).

Each structure is given as a SMILES string. Inconclusive results and toxic doses are left out.

The test has as its system L1210 leukemia ip in BDF1 mice, survival T/C. Nature of the test: NCI In Vivo Anticancer Drug Screen. Data for tumor model L1210 Leukemia (intraperitoneal) in B6D2F1 (BDF1) mice. The note with it: endpoint: mean survival time, higher = longer survival. The method in brief:
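Ratio derived from survival: compound-dosed mice over vehicle-dosed mice, all bearing a transplantable tumor.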

[1] abbreviates: dose: 100.0 mg/kg/injection, schedule: Q01DX009 (ip), vehicle: Klucel (hydroxypropylcellulose) (HPC).
The mark [2] stands for this setting: dose: 100.0 mg/kg/injection, schedule: Q04DX002 (ip), vehicle: Klucel (hydroxypropylcellulose) (HPC).
Where [3] appears, read: dose: 200.0 mg/kg/injection, schedule: Q01DX009 (ip), vehicle: Klucel (hydroxypropylcellulose) (HPC).
[4] abbreviates: dose: 200.0 mg/kg/injection, schedule: Q04DX002 (ip), vehicle: Klucel (hydroxypropylcellulose) (HPC).
Where [5] appears, read: dose: 400.0 mg/kg/injection, schedule: Q01DX009 (ip), vehicle: Klucel (hydroxypropylcellulose) (HPC).
The mark [6] stands for this setting: dose: 400.0 mg/kg/injection, schedule: Q04DX002 (ip), vehicle: Klucel (hydroxypropylcellulose) (HPC).
The mark [7] stands for this setting: dose: 100.0 mg/kg/injection, schedule: Q04DX003 (ip), vehicle: Klucel (hydroxypropylcellulose) (HPC).
Setting [8] is: dose: 200.0 mg/kg/injection, schedule: Q04DX003 (ip), vehicle: Klucel (hydroxypropylcellulose) (HPC).
The mark [9] stands for this setting: dose: 400.0 mg/kg/injection, schedule: Q04DX003 (ip), vehicle: Klucel (hydroxypropylcellulose) (HPC).
Where [10] appears, read: dose: 25.0 mg/kg/injection, schedule: Q01DX009 (ip), vehicle: Klucel (hydroxypropylcellulose) (HPC).
[11] abbreviates: dose: 50.0 mg/kg/injection, schedule: Q01DX001 (ip), vehicle: saline.
The mark [12] stands for this setting: dose: 50.0 mg/kg/injection, schedule: Q01DX009 (ip), vehicle: Klucel (hydroxypropylcellulose) (HPC).
[13] abbreviates: dose: 100.0 mg/kg/injection, schedule: Q01DX001 (ip), vehicle: saline.
Where [14] appears, read: dose: 200.0 mg/kg/injection, schedule: Q01DX001 (ip), vehicle: saline.
Where [15] appears, read: dose: 400.0 mg/kg/injection, schedule: Q01DX001 (ip), vehicle: saline.

Regarding `BrCC1CCCCO1` (stereo not given), the T/C is 94 % of control (dose: 12.5 mg/kg/injection, schedule: Q01DX009 (ip), vehicle: saline with Tween-80); 108 % of control (dose: 12.5 mg/kg/injection, schedule: Q04DX003 (ip), vehicle: saline with Tween-80); 99 % of control (dose: 25.0 mg/kg/injection, schedule: Q01DX009 (ip), vehicle: saline with Tween-80); 108 % of control (dose: 25.0 mg/kg/injection, schedule: Q04DX003 (ip), vehicle: saline with Tween-80); 99 % of control (dose: 50.0 mg/kg/injection, schedule: Q01DX009 (ip), vehicle: saline with Tween-80); 97 % of control (dose: 50.0 mg/kg/injection, schedule: Q04DX003 (ip), vehicle: saline with Tween-80).

Turning to `CN(Cc1cnc2nc(N)nc(N)c2n1)c1cc(Cl)c(C(=O)NC(CCC(=O)O)C(=O)O)c(Cl)c1` (stereo not given), the T/C (dose: 25.0 mg/kg/injection, schedule: Q01DX009 (ip), vehicle: sodium bicarbonate) is 106 % of control; the T/C (dose: 50.0 mg/kg/injection, schedule: Q01DX009 (ip), vehicle: sodium bicarbonate) was 107 % of control; the T/C (dose: 100.0 mg/kg/injection, schedule: Q01DX009 (ip), vehicle: sodium bicarbonate) is 622 % of control; the T/C (dose: 200.0 mg/kg/injection, schedule: Q01DX009 (ip), vehicle: sodium bicarbonate) was 120 % of control.

For `CCOc1ccccc1/C=N\NC(=S)Nc1ccc2cn[nH]c2c1`, the T/C was 96 % of control (dose: 50.0 mg/kg/injection, schedule: Q01DX001 (ip), vehicle: carboxymethylcellulose (CMC)); 100 % of control (dose: 100.0 mg/kg/injection, schedule: Q01DX001 (ip), vehicle: carboxymethylcellulose (CMC)); 102 % of control (dose: 200.0 mg/kg/injection, schedule: Q01DX001 (ip), vehicle: carboxymethylcellulose (CMC)); 94 % of control (dose: 400.0 mg/kg/injection, schedule: Q01DX001 (ip), vehicle: carboxymethylcellulose (CMC)).

As for `O=C(Nc1cccc([N+](=O)[O-])c1)Nc1ccccc1F`, the T/C runs as follows: under setting [1], 91 % of control; under setting [2], 108 % of control; under setting [3], 101 % of control; under setting [4], 91 % of control; under setting [5], 101 % of control; under setting [6], 94 % of control.

For `Nc1ncnc2c1ccn2C1OC(CO)C(O)C1O` (stereo not given), the T/C runs as follows: (dose: 0.25 mg/kg/injection, schedule: Q01DX Z (ip), vehicle: carboxymethylcellulose (CMC)) 101 % of control; (dose: 0.5 mg/kg/injection, schedule: Q01DX001 (ip), vehicle: carboxymethylcellulose (CMC)) 108 % of control; (dose: 0.5 mg/kg/injection, schedule: Q01DX Z (ip), vehicle: carboxymethylcellulose (CMC)) 104 % of control; (dose: 0.5 mg/kg/injection, schedule: Q02DX009 (ip), vehicle: carboxymethylcellulose (CMC)) 109 % of control; (dose: 0.5 mg/kg/injection, schedule: Q## X003 (ip), vehicle: carboxymethylcellulose (CMC)) 110 % of control; (dose: 0.75 mg/kg/injection, schedule: Q01DX Z (ip), vehicle: carboxymethylcellulose (CMC)) 104 % of control. Further, the T/C runs as follows: (dose: 1.0 mg/kg/injection, schedule: Q01DX001 (ip), vehicle: carboxymethylcellulose (CMC)) 113 % of control; (dose: 1.0 mg/kg/injection, schedule: Q01DX Z (ip), vehicle: carboxymethylcellulose (CMC)) 106 % of control; (dose: 1.0 mg/kg/injection, schedule: Q02DX009 (ip), vehicle: carboxymethylcellulose (CMC)) 115 % of control; (dose: 1.0 mg/kg/injection, schedule: Q## X003 (ip), vehicle: carboxymethylcellulose (CMC)) 111 % of control; (dose: 1.0 mg/kg/injection, schedule: Q## X005 (ip), vehicle: carboxymethylcellulose (CMC)) 113 % of control; (dose: 1.2 mg/kg/injection, schedule: Q01DX001 (ip), vehicle: carboxymethylcellulose (CMC)) 107 % of control. Further, the T/C by setting is: (dose: 1.25 mg/kg/injection, schedule: Q01DX Z (ip), vehicle: carboxymethylcellulose (CMC)) 116 % of control; (dose: 1.9 mg/kg/injection, schedule: Q01DX001 (ip), vehicle: carboxymethylcellulose (CMC)) 119 % of control; (dose: 2.0 mg/kg/injection, schedule: Q02DX009 (ip), vehicle: carboxymethylcellulose (CMC)) 122 % of control; (dose: 2.0 mg/kg/injection, schedule: Q## X003 (ip), vehicle: carboxymethylcellulose (CMC)) 123 % of control; (dose: 2.0 mg/kg/injection, schedule: Q## X005 (ip), vehicle: carboxymethylcellulose (CMC)) 120 % of control; (dose: 2.5 mg/kg/injection, schedule: Q01DX Z (ip), vehicle: carboxymethylcellulose (CMC)) 98 % of control. The T/C (dose: 4.0 mg/kg/injection, schedule: Q## X005 (ip), vehicle: carboxymethylcellulose (CMC)) was 102 % of control.

In the case of `O=C(Sc1cccc2ccccc12)c1ccc([N+](=O)[O-])cc1`, the T/C reads like this: under setting [7], 95 % of control; under setting [8], 97 % of control; under setting [9], 95 % of control.

As for `COc1ccccc1NC(=O)NCc1ccco1`, the T/C is, setting by setting: (dose: 77.0 mg/kg/injection, schedule: Q01DX Z (ip), vehicle: methylcellulose (MC)) 90 % of control; (dose: 116.0 mg/kg/injection, schedule: Q01DX Z (ip), vehicle: methylcellulose (MC)) 103 % of control; (dose: 175.0 mg/kg/injection, schedule: Q01DX Z (ip), vehicle: methylcellulose (MC)) 105 % of control.

For `COc1cc(N(CCCl)CCCl)ccc1/C=N\NC(=O)c1cccnc1`, the T/C runs as follows: under setting [10], 87 % of control; under setting [11], 105 % of control; under setting [12], 88 % of control; under setting [13], 105 % of control; under setting [1], 90 % of control; under setting [14], 100 % of control. In addition, the T/C reads like this: under setting [3], 96 % of control; under setting [15], 97 % of control.

For the molecule `CC(=Nc1cccc2ccccc12)c1c(O)cc(C)oc1=O`, the T/C under setting [1] is 100 % of control; the T/C under setting [2] is 98 % of control; the T/C under setting [3] is 95 % of control; the T/C under setting [4] is 98 % of control; the T/C under setting [5] was 92 % of control; the T/C under setting [6] was 95 % of control.

Take `CCCCCCCCC1OC1CCCCCCCC(=O)O` (stereo not given): the T/C is 108 % of control (dose: 25.0 mg/kg/injection, schedule: Q04DX002 (ip), vehicle: Klucel (hydroxypropylcellulose) (HPC)); 90 % of control under setting [11]; 101 % of control (dose: 50.0 mg/kg/injection, schedule: Q04DX002 (ip), vehicle: Klucel (hydroxypropylcellulose) (HPC)); 97 % of control under setting [13]; 101 % of control under setting [2]; 101 % of control under setting [14]. Besides, under setting [15], the T/C is 90 % of control.

As for `Cc1cc(C(C)(C)C)c(O)c(C(C)(C)C)c1`, the T/C is, setting by setting: under setting [10], 110 % of control; under setting [12], 103 % of control; under setting [1], 113 % of control; under setting [7], 103 % of control; under setting [8], 114 % of control; under setting [9], 95 % of control.

Consider `COc1ccc(NC(=O)Nc2cccc([N+](=O)[O-])c2OC)cc1`, for which the T/C is 93 % of control (dose: 25.0 mg/kg/injection, schedule: Q04DX002 (ip), vehicle: saline with Tween-80); 96 % of control (dose: 50.0 mg/kg/injection, schedule: Q04DX002 (ip), vehicle: saline with Tween-80); 89 % of control (dose: 100.0 mg/kg/injection, schedule: Q04DX002 (ip), vehicle: saline with Tween-80).

For the molecule `c1ccc2c(c1)CC(=[N+]1CCCCC1)Cc1ccccc1-2`, the T/C is 92 % of control (dose: 100.0 mg/kg/injection, schedule: Q01DX009 (ip), vehicle: saline); 103 % of control (dose: 100.0 mg/kg/injection, schedule: Q04DX003 (ip), vehicle: saline); 92 % of control (dose: 200.0 mg/kg/injection, schedule: Q01DX009 (ip), vehicle: saline); 89 % of control (dose: 200.0 mg/kg/injection, schedule: Q04DX003 (ip), vehicle: saline); 87 % of control (dose: 400.0 mg/kg/injection, schedule: Q04DX003 (ip), vehicle: saline).
